From US10246456B2, “IRAK4 inhibiting agents” (BIOGEN MA INC., priority 2014, dated 2019)
Where “and” joins values, the source holds several entries; their conditions need not be identical. Equal entries are not always repeated.

Target: IRAK4 (Homo sapiens (Human), UniProt Q9NWZ3)
Test: IRAK-4 AlphaScreen biochemical kinase assay
Conditions: 1 nM IRAK4, 1 mM ATP, 3.5 h at RT
How it was run: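 AlphaScreen read-out: streptavidin beads bind the biotinylated peptide and protein A beads bind the anti-phosphothreonine antibody, so energy transfer reports phosphorylation of the peptide. The kinase is human IRAK-4.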

Chain of IRAK4 (Q9NWZ3 whole entry, species assumed): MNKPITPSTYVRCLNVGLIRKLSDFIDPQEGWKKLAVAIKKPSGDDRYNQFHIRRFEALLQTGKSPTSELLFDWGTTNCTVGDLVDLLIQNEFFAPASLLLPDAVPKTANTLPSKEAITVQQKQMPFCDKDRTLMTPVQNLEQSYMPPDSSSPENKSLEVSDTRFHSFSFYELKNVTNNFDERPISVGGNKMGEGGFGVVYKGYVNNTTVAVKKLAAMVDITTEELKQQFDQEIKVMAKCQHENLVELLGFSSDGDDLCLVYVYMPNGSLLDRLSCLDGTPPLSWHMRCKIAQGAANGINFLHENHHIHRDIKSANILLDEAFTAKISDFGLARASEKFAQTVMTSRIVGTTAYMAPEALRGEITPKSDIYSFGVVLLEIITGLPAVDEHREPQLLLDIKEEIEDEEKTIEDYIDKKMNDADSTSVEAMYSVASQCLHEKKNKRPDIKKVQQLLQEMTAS

| IC50 | SMILES |
| --- | --- |
| < 0.1 µM | Cc1cccc(-n2ncc3c(Cl)cc(-c4cccc(C(C)N)n4)cc32)n1 (stereo not shown) [Example 106, 1-(6-(4-chloro-1-(6-methylpyridin-2-yl)-1H-indazol-6-yl)pyridin-2-yl)ethanamine] |
| 0.1 to 1 µM | Cc1cccc(-n2ncc3c(C4CC4)cc(-c4cccc(C(C)N)n4)cc32)n1 (stereo not shown) [Example 107, 1-(6-(4-cyclopropyl-1-(6-methylpyridin-2-yl)-1H-indazol-6-yl)pyridin-2-yl)ethanamine] |
| < 0.1 µM | C=C(C)c1cc(-c2cccc(C(C)N)n2)cc2c1cnn2-c1cccc(C)n1 (stereo not shown) [Example 108, 1-(6-(1-(6-methylpyridin-2-yl)-4-(prop-1-en-2-yl)-1H-indazol-6-yl)pyridin-2-yl)ethanamine] |
| 0.1 to 1 µM | CCc1cc(-c2cccc(C(C)N)n2)cc2c1cnn2-c1cccc(C)n1 (stereo not shown) [Example 109, 1-(6-(4-ethyl-1-(6-methylpyridin-2-yl)-1H-indazol-6-yl)pyridin-2-yl)ethanamine] |
| 0.1 to 1 µM | Cc1cccc(-n2ncc3c(C(C)C)cc(-c4cccc(C(C)N)n4)cc32)n1 (stereo not shown) [Example 110, 1-(6-(4-isopropyl-1-(6-methylpyridin-2-yl)-1H-indazol-6-yl)pyridin-2-yl)ethanamine] |
| < 0.1 µM | COC(=O)c1cc(-c2cccc(C(C)N)n2)cc2c1cnn2-c1cccc(C)n1 (stereo not shown) [Example 112, methyl 6-(6-(1-aminoethyl)pyridin-2-yl)-1-(6-methylpyridin-2-yl)-1H-indazole-4-carboxylate] |
| 0.1 to 1 µM | CNC(C)c1cccc(-c2ccc3cnn(-c4cccc(C)n4)c3c2)n1 (stereo not shown) [Example 116, N-methyl-1-(6-(1-(6-methylpyridin-2-yl)-1H-indazol-6-yl)pyridin-2-yl)ethanamine] |
| < 0.1 µM | CC(N)c1cccc(-c2ccc3cnn(-c4cccc(C5CC5)n4)c3c2)n1 (stereo not shown) [Example 119, 1-(6-(1-(6-cyclopropylpyridin-2-yl)-1H-indazol-6-yl)pyridin-2-yl)ethanamine] |
| < 0.1 µM | CC(C)c1cccc(-n2ncc3ccc(-c4cccc(C(C)N)n4)cc32)n1 (stereo not shown) [Example 121, 1-(6-(1-(6-isopropylpyridin-2-yl)-1H-indazol-6-yl)pyridin-2-yl)ethanamine] |
| 0.1 to 1 µM | CC(N)c1cccc(-c2ccc3cnn(-c4ccccn4)c3c2)n1 (stereo not shown) [Example 122, 1-(6-(1-(pyridin-2-yl)-1H-indazol-6-yl)pyridin-2-yl)ethanamine] |
| < 0.1 µM | CC(N)c1cccc(-c2ccc3cnn(-c4cccc(CO)n4)c3c2)n1 (stereo not shown) [Example 123, (6-(6-(6-(1-aminoethyl)pyridin-2-yl)-1H-indazol-1-yl)pyridin-2-yl)methanol] |
| < 0.1 µM | Cc1cc(-c2ccc3cnn(-c4cccc(C)n4)c3c2)nc(C(C)N)c1 (stereo not shown) [Example 124, 1-(4-methyl-6-(1-(6-methylpyridin-2-yl)-1H-indazol-6-yl)pyridin-2-yl)ethanamine] |
| 0.1 to 1 µM | Cc1cccc(-n2ncc3ccc(-c4cc(C(F)(F)F)cc(C(C)N)n4)cc32)n1 (stereo not shown) [Example 125, 1-(6-(1-(6-methylpyridin-2-yl)-1H-indazol-6-yl)-4-(trifluoromethyl)pyridin-2-yl)ethanamine] |
| < 0.1 µM | CC(N)c1cccc(-c2ccc3cnn(-c4cccc(C(N)=O)n4)c3c2)n1 (stereo not shown) [Example 126, 6-(6-(6-(1-aminoethyl)pyridin-2-yl)-1H-indazol-1-yl)picolinamide] |
| < 0.1 µM | CC(C)(N)c1cccc(-c2ccc3cnn(-c4cccc(C(F)(F)F)n4)c3c2)n1 [Example 129, 2-(6-(1-(6-(trifluoromethyl)pyridin-2-yl)-1H-indazol-6-yl)pyridin-2-yl)propan-2-amine] |
| 0.1 to 1 µM | Cc1cccc(-n2ncc3ccc(-c4cccc(C(C)O)n4)cc32)n1 (stereo not shown) [Example 130, 1-(6-(1-(6-methylpyridin-2-yl)-1H-indazol-6-yl)pyridin-2-yl)ethanol] |

| IC50 | SMILES |
| --- | --- |
| < 0.1 µM | Cc1cccc(-n2ncc3ccc(-c4cccc(C(N)C5CC5)n4)cc32)n1 (stereo not shown) [Example 131, cyclopropyl(6-(1-(6-methylpyridin-2-yl)-1H-indazol-6-yl)pyridin-2-yl)methanamine] |
| 0.1 to 1 µM | Cc1cnc(-n2ncc3ccc(-c4cccc(C(C)N)n4)cc32)s1 (stereo not shown) [Example 135, 1-(6-(1-(5-methylthiazol-2-yl)-1H-indazol-6-yl)pyridin-2-yl)ethanamine] |
| 0.1 to 1 µM | CC(N)c1cccc(-c2ccc3cnn(-c4ccn(C)n4)c3c2)n1 (stereo not shown) [Example 137, 1-(6-(1-(1-methyl-1H-pyrazol-3-yl)-1H-indazol-6-yl)pyridin-2-yl)ethanamine] |
| 0.1 to 1 µM and 1 to 10 µM | CC(N)c1cccc(-c2ccc3cnn(-c4cn(C)cn4)c3c2)n1 (stereo not shown) [Example 138, 1-(6-(1-(1-methyl-1H-imidazol-4-yl)-1H-indazol-6-yl)pyridin-2-yl)ethanamine] |
| 0.1 to 1 µM | Cc1cccc(-n2ncc3ccc(-c4nc(CN)cs4)cc32)n1 [Example 139, (2-(1-(6-methylpyridin-2-yl)-1H-indazol-6-yl)thiazol-4-yl)methanamine] |
| 0.1 to 1 µM | Cc1cccc(-n2ncc3ccc(-c4ncc(CN)s4)cc32)n1 [Example 140, (2-(1-(6-methylpyridin-2-yl)-1H-indazol-6-yl)thiazol-5-yl)methanamine] |
| < 0.1 µM | Cc1cccc(-n2ncc3ccc(-c4cccc([C@@H](C)N)n4)cc32)n1 [Example 141, (R)-1-(6-(1-(6-methylpyridin-2-yl)-1H-indazol-6-yl)pyridin-2-yl)ethanamine] |
| < 0.1 µM | Cc1cccc(-n2ncc3ccc(-c4cccc([C@H](C)N)n4)cc32)n1 [Example 142, (S)-1-(6-(1-(6-methylpyridin-2-yl)-1H-indazol-6-yl)pyridin-2-yl)ethanamine] |
| < 0.1 µM | C[C@H](N)c1cccc(-c2ccc3cnn(-c4cccc(CO)n4)c3c2)n1 [Example 143, (S)-(6-(6-(6-(1-aminoethyl)pyridin-2-yl)-1H-indazol-1-yl)pyridin-2-yl)methanol] |
| < 0.1 µM | C[C@@H](N)c1cccc(-c2ccc3cnn(-c4cccc(CO)n4)c3c2)n1 [Example 144, (R)-(6-(6-(6-(1-aminoethyl)pyridin-2-yl)-1H-indazol-1-yl)pyridin-2-yl)methanol] |
| > 10 µM | Cc1cccc(-n2ncc3ccc(-c4cc(C(N)=O)ccn4)cc32)n1 [Example 201, 2-(1-(6-methylpyridin-2-yl)-1H-indazol-6-yl)isonicotinamide] |
| 0.1 to 1 µM | Cc1cccc(-n2ncc3ccc(-c4cncc(N(C)C)c4)cc32)n1 [Example 202, N,N-dimethyl-5-(1-(6-methylpyridin-2-yl)-1H-indazol-6-yl)pyridin-3-amine] |
| 1 to 10 µM | Cc1cccc(-n2ncc3ccc(-c4cncc(N5CCCC5)c4)cc32)n1 [Example 203, 1-(6-methylpyridin-2-yl)-6-(5-(pyrrolidin-1-yl)pyridin-3-yl)-1H-indazole] |
| 0.1 to 1 µM | Cc1cccc(-n2ncc3ccc(-c4cc(N)cnc4C)cc32)n1 [Example 204, 6-methyl-5-(1-(6-methylpyridin-2-yl)-1H-indazol-6-yl)pyridin-3-amine] |
| > 10 µM | Nc1cncc(-c2ccc3cnn(-c4cccc(C5CCCC5)n4)c3c2)c1 [Example 205, 5-(1-(6-cyclopentylpyridin-2-yl)-1H-indazol-6-yl)pyridin-3-amine] |

| SMILES | IC50 |
| --- | --- |
| Cc1cccc(-n2ncc3c(C(F)(F)F)cc(-c4cccc(C(C)N)n4)cc32)n1 (stereo not shown) [Example 111, 1-(6-(1-(6-methylpyridin-2-yl)-4-(trifluoromethyl)-1H-indazol-6-yl)pyridin-2-yl)ethanamine] | 0.1 to 1 µM |
| Cc1cccc(-n2ncc3c(C(=O)O)cc(-c4cccc(C(C)N)n4)cc32)n1 (stereo not shown) [Example 113, 6-(6-(1-aminoethyl)pyridin-2-yl)-1-(6-methylpyridin-2-yl)-1H-indazole-4-carboxylic acid] | 0.1 to 1 µM |
| Cc1cccc(-n2ncc3c(CO)cc(-c4cccc(C(C)N)n4)cc32)n1 (stereo not shown) [Example 114, (6-(6-(1-aminoethyl)pyridin-2-yl)-1-(6-methylpyridin-2-yl)-1H-indazol-4-yl)methanol] | < 0.1 µM |
| CNC(=O)c1cc(-c2cccc(C(C)N)n2)cc2c1cnn2-c1cccc(C)n1 (stereo not shown) [Example 115, 6-(6-(1-aminoethyl)pyridin-2-yl)-N-methyl-1-(6-methylpyridin-2-yl)-1H-indazole-4-carboxamide] | < 0.1 µM |
| CCc1cccc(-n2ncc3ccc(-c4cccc(C(C)N)n4)cc32)n1 (stereo not shown) [Example 120, 1-(6-(1-(6-ethylpyridin-2-yl)-1H-indazol-6-yl)pyridin-2-yl)ethanamine] | < 0.1 µM |
| CCC(N)c1cccc(-c2ccc3cnn(-c4cccc(C(F)(F)F)n4)c3c2)n1 (stereo not shown) [Example 127, 1-(6-(1-(6-(trifluoromethyl)pyridin-2-yl)-1H-indazol-6-yl)pyridin-2-yl)propan-1-amine] | < 0.1 µM |
| NC(c1cccc(-c2ccc3cnn(-c4cccc(C(F)(F)F)n4)c3c2)n1)C1CC1 (stereo not shown) [Example 128, cyclopropyl(6-(1-(6-(trifluoromethyl)pyridin-2-yl)-1H-indazol-6-yl)pyridin-2-yl)methanamine] | < 0.1 µM |
| CCCC(N)c1cccc(-c2ccc3cnn(-c4cccc(C)n4)c3c2)n1 (stereo not shown) [Example 132, 1-(6-(1-(6-methylpyridin-2-yl)-1H-indazol-6-yl)pyridin-2-yl)butan-1-amine] | < 0.1 µM |
| Cc1csc(-n2ncc3ccc(-c4cccc(C(C)N)n4)cc32)n1 (stereo not shown) [Example 134, 1-(6-(1-(4-methylthiazol-2-yl)-1H-indazol-6-yl)pyridin-2-yl)ethanamine] | 0.1 to 1 µM |
| Cc1nc(-n2ncc3ccc(-c4cccc(C(C)N)n4)cc32)cs1 (stereo not shown) [Example 136, 1-(6-(1-(2-methylthiazol-4-yl)-1H-indazol-6-yl)pyridin-2-yl)ethanamine] | 0.1 to 1 µM |
| CCC[C@H](N)c1cccc(-c2ccc3cnn(-c4cccc(CO)n4)c3c2)n1 [Example 145, (S)-(6-(6-(6-(1-aminobutyl)pyridin-2-yl)-1H-indazol-1-yl)pyridin-2-yl)methanol] | < 0.1 µM |
| CCC[C@@H](N)c1cccc(-c2ccc3cnn(-c4cccc(CO)n4)c3c2)n1 [Example 146, (R)-(6-(6-(6-(1-aminobutyl)pyridin-2-yl)-1H-indazol-1-yl)pyridin-2-yl)methanol] | < 0.1 µM |
